Type in all cases: cell-based
The target in assay [1] is T1, FKBP1A (FKBP12)-calcineurin PPP3CA interaction (Homo sapiens, UniProt P62942).
T1 construct: expressed in transfected cells; host or cells: HEK293T
The assay can be described thus: MAPPIT-derivative assay, FKBP1A bait receptor fusion (pSEL-FKBP1A) with gp130 fusion of calcineurin PPP3CA catalytic subunit. The conditions noted are these: dose-response; without or with co-expression of PPP3R2 regulatory subunit. Here is the method:
(§1) Luciferase activity was measured 24 hours after test compound treatment using the Luciferase Assay System kit (PROMEGA, Madison, Wis.) with an Ensight plate reader (PERKIN ELMER LIFE SCIENCES, Waltham, Mass.). […] Error bars represent standard deviations. Curves were fit using 4-parameter nonlinear regression in […] PRISM software.

Assay [2] deals with T2, CRBN with proteins of a human ORF(eome) cDNA library (Homo sapiens, UniProt Q96SW2).
T2 construct: expressed in transfected cells; host or cells: HEK293T
Briefly: MAPPIT-derivative cell microarray screen of a human ORF(eome) cDNA library with CRBN bait (pSEL-CRBN). The conditions noted are these: CC-220 10 μM; four ORF cDNAs confirmed in dose-response. Here is the method:
In order to identify ligand-induced CRBN substrates, or neosubstrates, a MAPPIT cell microarray screen was performed using the procedure described in Lievens, et al. “Proteome-scale binary interactomics in human cells.” Molecular & Cellular Proteomics 15.12 (2016): 3624-3639. […] These transfected cells were then added to microarray screening plates containing a prey gp130 fusion expression plasmid collection covering over 15,000 ORFs. Each spot in the microarray contained a different gp130-ORF fusion expression plasmid, as well as a STAT3-responsive fluorescence protein-encoding reporter plasmid. CRBN bait transfected cells landing and attaching on these spots therefore become transfected as well with the gp130-ORF prey plasmid and the reporter plasmid, resulting in a different CRBN-ORF combination being tested in the cells on every different microarray spot. Twenty-four hours after transfection cells were differentially stimulated with erythropoietin with and without the CRBN ligand CC-220 (10 μM), and reporter signal (GFP-like fluorescence reporter) was read out 48 hours later.

Assay [3] deals with T3, FKBP1A (FKBP12)-MTOR (FRB domain) interaction (Homo sapiens, UniProt P62942).
T3 construct: expressed in transfected cells; host or cells: HEK293T
The assay can be described thus: MAPPIT-derivative assay, FKBP1A bait receptor fusion (pSEL-FKBP1A) with gp130-MTOR (FRB domain). The conditions noted are these: dose-response, HEK293T, EPO-stimulated. As to the method:
as §1
Luciferase activity was measured 24 hours after test compound treatment using the Luciferase Assay System kit (PROMEGA, Madison, Wis.) with an Ensight plate reader (PERKIN ELMER LIFE SCIENCES, Waltham, Mass.). […] Error bars represent standard deviations.

For a further assay, the target named is T4, CRBN-GSPT2 interaction (Homo sapiens, UniProt Q96SW2).
T4 construct: expressed in transfected cells; host or cells: HEK293T
Briefly: MAPPIT-derivative assay, CRBN bait receptor fusion (pSEL-CRBN) with gp130-GSPT2, luciferase reporter in HEK293T cells. The conditions noted are these: dose-response, EPO-stimulated, 24 hours compound treatment. An excerpt:
(§2) In order to identify ligand-induced CRBN substrates, or neosubstrates, here we use a derivative of the MAPPIT assay, applying the procedure described in Lemmens, et al. “MAPPIT, a mammalian two-hybrid method for in-cell detection of protein-protein interactions,” Methods Mol Biol. 2015; 1278:447-55. The traditional MAPPIT assay has been used to monitor protein-protein interactions. A bait protein (protein A) is expressed as a fusion protein in which it is genetically fused to an engineered intracellular receptor domain of the leptin receptor, which is itself fused to the extracellular domain of the erythropoietin (Epo) receptor. […] Activation of STAT3 can be monitored by introduction of a STAT3-responsive reporter gene, including a luciferase-encoding gene or a gene encoding a fluorescent marker such as GFP or some other type of Fluorescent Protein (EGFP, etc.). […]
(§3) In this Example 1, we used a derivative of the MAPPIT assay that we developed specifically for use in determining CRBN-ligand induced protein interactions, i.e. using a specific CRBN bait protein and assaying for ligand-dependent induction of protein complex formation. The CRBN bait protein is expressed as a fusion with the MAPPIT chimeric membrane receptor and the interacting target protein is fused with the cytoplasmic gp130 receptor fragment (gp130-IKZF1(isoform 7), gp130-target X, gp130-GSPT1(domain 2+3) or gp130-GSPT2). […]
A general note: In a reporter assay the amount or activity of a reporter protein is the signal.

The target in another assay is T5, CRBN-GSPT1 interaction (Homo sapiens, UniProt Q96SW2).
T5 construct: expressed in transfected cells; host or cells: HEK293T
Briefly: MAPPIT-derivative assay, CRBN bait receptor fusion (pSEL-CRBN) with gp130-GSPT1 (domain 2+3), luciferase reporter in HEK293T cells. The conditions noted are these: dose-response, EPO-stimulated, 24 hours compound treatment.
Excerpt: as §2, §3

T1 sequence (P62942 whole entry, other chains not shown): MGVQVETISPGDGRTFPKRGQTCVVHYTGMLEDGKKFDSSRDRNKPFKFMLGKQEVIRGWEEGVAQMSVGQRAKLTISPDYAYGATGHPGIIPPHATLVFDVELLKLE
T1 sequence (Q96LZ3 whole entry partner, other chains not shown): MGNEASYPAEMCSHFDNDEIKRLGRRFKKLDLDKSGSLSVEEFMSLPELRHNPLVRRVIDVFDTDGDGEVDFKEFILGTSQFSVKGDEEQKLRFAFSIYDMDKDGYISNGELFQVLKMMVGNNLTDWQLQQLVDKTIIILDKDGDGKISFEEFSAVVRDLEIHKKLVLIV
T2 sequence (Q96SW2 whole entry): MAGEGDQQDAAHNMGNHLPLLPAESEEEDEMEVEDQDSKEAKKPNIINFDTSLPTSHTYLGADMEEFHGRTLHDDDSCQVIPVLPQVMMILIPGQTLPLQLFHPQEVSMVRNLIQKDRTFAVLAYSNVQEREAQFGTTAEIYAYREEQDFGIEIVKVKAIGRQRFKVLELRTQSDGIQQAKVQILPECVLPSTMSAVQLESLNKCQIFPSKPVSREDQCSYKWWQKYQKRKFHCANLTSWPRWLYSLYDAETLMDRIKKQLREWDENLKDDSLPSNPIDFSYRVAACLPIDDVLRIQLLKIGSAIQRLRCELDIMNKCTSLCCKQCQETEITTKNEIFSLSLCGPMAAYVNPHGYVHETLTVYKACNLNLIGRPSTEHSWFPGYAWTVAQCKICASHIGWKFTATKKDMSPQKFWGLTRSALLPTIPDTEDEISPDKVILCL
T2 sequence (Q16531 whole entry partner): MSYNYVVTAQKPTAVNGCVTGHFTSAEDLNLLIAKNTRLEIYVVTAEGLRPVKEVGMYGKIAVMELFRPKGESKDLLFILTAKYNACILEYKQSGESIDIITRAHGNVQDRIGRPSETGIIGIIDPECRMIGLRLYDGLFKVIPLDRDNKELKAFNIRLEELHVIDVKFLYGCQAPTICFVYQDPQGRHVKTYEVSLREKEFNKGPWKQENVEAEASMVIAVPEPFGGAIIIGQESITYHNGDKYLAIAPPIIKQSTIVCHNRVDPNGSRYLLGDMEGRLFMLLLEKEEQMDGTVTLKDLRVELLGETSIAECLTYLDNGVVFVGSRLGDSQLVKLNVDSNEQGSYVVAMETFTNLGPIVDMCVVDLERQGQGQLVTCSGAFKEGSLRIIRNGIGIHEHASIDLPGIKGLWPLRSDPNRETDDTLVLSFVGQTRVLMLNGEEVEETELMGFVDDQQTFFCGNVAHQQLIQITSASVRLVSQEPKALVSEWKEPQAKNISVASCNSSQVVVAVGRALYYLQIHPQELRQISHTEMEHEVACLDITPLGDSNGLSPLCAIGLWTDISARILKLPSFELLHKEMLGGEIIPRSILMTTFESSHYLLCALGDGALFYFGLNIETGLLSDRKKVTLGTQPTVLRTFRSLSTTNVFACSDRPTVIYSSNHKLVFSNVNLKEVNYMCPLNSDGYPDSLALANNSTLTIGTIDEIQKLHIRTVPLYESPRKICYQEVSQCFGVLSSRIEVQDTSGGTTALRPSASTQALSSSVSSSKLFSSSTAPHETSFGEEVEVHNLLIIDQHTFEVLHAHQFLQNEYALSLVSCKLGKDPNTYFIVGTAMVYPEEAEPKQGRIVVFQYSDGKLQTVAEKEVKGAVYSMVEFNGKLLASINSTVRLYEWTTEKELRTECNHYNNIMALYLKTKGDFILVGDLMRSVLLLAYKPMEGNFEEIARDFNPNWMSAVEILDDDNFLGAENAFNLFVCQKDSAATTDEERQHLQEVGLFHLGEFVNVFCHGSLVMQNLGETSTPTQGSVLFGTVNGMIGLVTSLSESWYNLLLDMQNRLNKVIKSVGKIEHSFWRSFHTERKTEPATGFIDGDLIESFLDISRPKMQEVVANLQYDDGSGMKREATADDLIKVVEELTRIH
T5 sequence (Q96SW2 whole entry): as the sequence (Q96SW2 whole entry) above
T5 sequence (P15170 299-495 partner limits assumed): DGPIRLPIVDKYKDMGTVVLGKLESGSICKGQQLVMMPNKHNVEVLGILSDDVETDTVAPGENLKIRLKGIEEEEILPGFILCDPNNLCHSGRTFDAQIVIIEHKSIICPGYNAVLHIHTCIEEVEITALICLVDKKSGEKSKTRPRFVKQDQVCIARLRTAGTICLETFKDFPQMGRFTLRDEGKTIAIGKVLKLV
T5 sequence (Q16531 whole entry partner): as the sequence (Q16531 whole entry partner) above
T4 sequence (Q96SW2 whole entry): as the sequence (Q96SW2 whole entry) above
T4 sequence (Q8IYD1 whole entry partner): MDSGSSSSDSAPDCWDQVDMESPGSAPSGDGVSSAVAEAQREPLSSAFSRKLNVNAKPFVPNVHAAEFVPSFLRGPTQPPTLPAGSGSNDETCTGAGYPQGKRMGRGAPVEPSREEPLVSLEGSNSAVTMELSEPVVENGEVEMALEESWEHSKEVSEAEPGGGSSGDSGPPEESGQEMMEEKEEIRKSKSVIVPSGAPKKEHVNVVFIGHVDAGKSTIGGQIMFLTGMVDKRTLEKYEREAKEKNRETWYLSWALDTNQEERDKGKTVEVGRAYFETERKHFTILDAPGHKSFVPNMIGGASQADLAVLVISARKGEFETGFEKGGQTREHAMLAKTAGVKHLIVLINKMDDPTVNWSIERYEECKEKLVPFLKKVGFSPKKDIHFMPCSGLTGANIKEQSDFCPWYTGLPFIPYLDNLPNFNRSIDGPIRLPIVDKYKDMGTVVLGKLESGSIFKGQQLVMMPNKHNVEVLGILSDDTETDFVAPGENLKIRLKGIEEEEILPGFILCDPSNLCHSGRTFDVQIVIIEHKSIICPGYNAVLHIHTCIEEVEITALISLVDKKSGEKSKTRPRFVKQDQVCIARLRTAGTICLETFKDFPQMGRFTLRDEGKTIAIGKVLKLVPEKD
T4 sequence (Q16531 whole entry partner): as the sequence (Q16531 whole entry partner) above
T3 sequence (P62942 whole entry, the tested form may be a part): as the sequence (P62942 whole entry, other chains not shown) above
T3 sequence (P42345 2012-2144 partner limits assumed): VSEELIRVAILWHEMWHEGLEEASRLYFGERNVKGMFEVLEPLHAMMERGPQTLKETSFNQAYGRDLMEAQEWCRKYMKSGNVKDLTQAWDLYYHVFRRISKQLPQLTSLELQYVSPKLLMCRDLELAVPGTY

On to `CC[C@@H]1/C=C(\C)C[C@H](C)C[C@H](OC)[C@H]2O[C@@](O)(C(=O)C(=O)N3CCCC[C@H]3C(=O)O[C@H](/C(C)=C/[C@@H]3CC[C@H](Cl)[C@H](OC)C3)[C@H](C)[C@@H](O)CC1=O)[C@H](C)C[C@@H]2OC` [pimecrolimus], for which the “compound-dependent binding of PPP3CA to FKBP1A (reporter signal)” value in assay [1] is listed as “binding of PPP3CA can be monitored”.
With `O=C1CC[C@H](N2Cc3c(OCc4ccc(CN5CCOCC5)cc4)cccc3C2=O)C(=O)N1` [CC-220], the “fluorescence reporter signal, ORF proteins recruited to CRBN” value in assay [2] is on record as “significant induction of signal is observed for a number of ORF cDNAs”.
`C=CC[C@@H]1/C=C(\C)C[C@H](C)C[C@H](OC)[C@H]2O[C@@](O)(C(=O)C(=O)N3CCCC[C@H]3C(=O)O[C@H](/C(C)=C/[C@@H]3CC[C@@H](O)[C@H](OC)C3)[C@H](C)[C@@H](O)CC1=O)[C@H](C)C[C@@H]2OC` [FK506, tacrolimus]: the “compound-dependent binding of PPP3CA to FKBP1A (reporter signal)” value in assay [1] is “binding of PPP3CA can be monitored”.
Take `CO[C@H]1C[C@@H]2CC[C@@H](C)[C@@](O)(O2)C(=O)C(=O)N2CCCC[C@H]2C(=O)O[C@H]([C@H](C)C[C@@H]2CC[C@@H](OCCO)[C@H](OC)C2)CC(=O)[C@H](C)/C=C(\C)[C@@H](O)[C@@H](OC)C(=O)[C@H](C)C[C@H](C)/C=C/C=C/C=C/1C` [everolimus]: the “compound-induced recruitment of MTOR to FKBP1A (reporter signal)” value in assay [3] was “compound-induced recruitment of MTOR is detected”.
Regarding `Cc1ccc(NC(=O)NCc2ccc3c(c2)CN(C2CCC(=O)NC2=O)C3=O)cc1Cl` (stereo not drawn) [CC-885], at CRBN-GSPT2 interaction, the “compound-induced recruitment of GSPT2 to CRBN (reporter signal)” value is reported as “only recruited through CC-885”. Besides, the “compound-induced recruitment of GSPT1 to CRBN (reporter signal)” value on CRBN-GSPT1 interaction is “only recruited through CC-885”.

These data come from US20230116707A1, “DETECTION OF NOVEL DEGRADATION-RELATED INTERACTIONS” (Orionis Biosciences, Inc., priority 2019, published 2023).
